Consider 23 compounds from patent US20200069691A1, “HETEROCYCLIC COMPOUNDS AS HIV PROTEASE INHIBITORS” (Merck Sharp & Dohme Corp., priority 2016, published 2020).

As a reminder, the pIC50 is the negative decadic logarithm of the IC50, by convention in mol/L.

In this test the target is T1, wild-type HIV-1 protease (Human immunodeficiency virus type 1 group M subtype B, UniProt P04585).
T1 construct: Escherichia coli expressed wild-type HIV-1 protease protein
Description: Assay for Inhibition of Microbial Expressed HIV Protease (peptide substrate cleavage, LC-MS/MS readout). Type of test: biochemical. As to conditions: E. coli expressed wild-type HIV-1 protease, mean of at least two independent experiments, read-out: HIV Pr Enzyme HIV1 PR IC50. As to the method:
Assay for Inhibition of Microbial Expressed HIV Protease
Inhibition of Escherichia coli expressed wild-type HIV-1 protease protein was carried out with a peptide substrate [Val-Ser-Gln-Asn-(βnaphtyl)Ala-Pro-Ile-Val]. The inhibitor compound was preincubated with HIV-1 protease enzyme in assay buffer (50 mM sodium acetate, pH 5.5, 100 mM NaCl, and 0.1% BSA) for 30 minutes at room temperature. Peptide substrate was added to 400 μM in a total volume of 20 μL containing […] HIV-1 protease (final) after which the reaction was incubated for 1 hour at 30° C. […] The extent of inhibition of the reaction was determined from the peak area of the products.
Data shown in the table reflects the mean of at least two independent experiments.

pIC50: −log10 of the molar value.

On to `N=C1N[C@](CCCC(F)(F)F)(c2ccc(F)cc2)C(=O)N1Cc1ccc(C(F)(F)F)c(C(=O)N2CCN(c3cncnc3)CC2)c1` [Compound 88, (5R)-5-(4-fluorophenyl)-2-imino-3-{3-[(4-pyrimidin-5-ylpiperazin-1-yl)carbonyl]-4-(trifluoromethyl)-benzyl}-5-(4,4,4-trifluorobutyl)-imidazolidin-4-one], for which the pIC50 is 7.82.
On to `N=C1N[C@](CCCC(F)(F)F)(c2ccc(F)cc2)C(=O)N1Cc1ccc(C(F)(F)F)c(C(=O)N2CCN3c4ccccc4CC3C2)c1` (stereo partly drawn) [Compound 132, (5R)-5-(4-fluorophenyl)-2-imino-3-[3-(3,4,10,10a-tetrahydropyrazino-[1,2-a]indol-2(1H)-ylcarbonyl)-4-(trifluoromethyl)benzyl]-5-(4,4,4-trifluorobutyl)imidazolidin-4-one], for which the pIC50 was 7.06.
Regarding `CC(C)(C)NC(=O)c1nnc2n1CCN(C(=O)c1cccc(CN3C(=N)NC(c4ccccc4)(c4ccccc4)C3=O)c1)C2` [Compound 361, N-tert-butyl-7-({3-[(2-imino-5-oxo-4,4-diphenylimidazolidin-1-yl)methyl]phenyl}carbonyl)-5,6,7,8-tetrahydro[1,2,4]triazolo[4,3-a]pyrazine-3-carboxamide], the pIC50 is 7.02.
On to `N=C1N[C@](CCCC(F)(F)F)(c2ccc(F)cc2)C(=O)N1Cc1ccc(C(F)(F)F)c(C(=O)N2Cc3cnc(NC4CCCC4)nc3C2)c1` [Compound 71, (5R)-3-[3-{[2-(cyclopentylamino)-5,7-dihydro-6H-pyrrolo[3,4-d]pyrimidin-6-yl]carbonyl}-4-(trifluoromethyl)benzyl]-5-(4-fluorophenyl)-2-imino-5-(4,4,4-trifluorobutyl)imidazolidin-4-one], for which the pIC50 is 8.04.
For the compound `COc1ncc2c(n1)CN(C(=O)c1cccc(CN3C(=N)NC(c4ccc(F)cc4)(c4ccc(F)cc4)C3=O)c1)C2` [Compound 205, 5,5-bis(4-fluorophenyl)-2-imino-3-{3-[(2-methoxy-5,7-dihydro-6H-pyrrolo[3,4-d]pyrimidin-6-yl)carbonyl]benzyl} imidazolidin-4-one], the pIC50 was 8.12.
In the case of `N=C1N[C@](CCCC(F)(F)F)(c2ccc(F)cc2)C(=O)N1Cc1ccc(C(F)(F)F)c(C(=O)N2Cc3cnc(-c4cnn5c4CCCC5)nc3C2)c1` [Compound 28, (5R)-5-(4-fluorophenyl)-2-imino-3-[3-{[2-(4,5,6,7-tetrahydropyrazolo-[1,5-a]pyridin-3-yl)-5,7-dihydro-6H-pyrrolo[3,4-d]pyrimidin-6-yl]carbonyl}-4-(trifluoromethyl)-benzyl]-5-(4,4,4-trifluorobutyl)imidazolidin-4-one], the pIC50 is 8.52.
Turning to `COC(=O)Nc1ncc2c(n1)CN(C(=O)c1cccc(CN3C(=N)NC(CC(C)C)(c4ccccc4)C3=O)c1)C2` (centres unmarked) [Compound 188, methyl {6-[(3-{[2-imino-4-(2-methylpropyl)-5-oxo-4-phenylimidazolidin-1-yl]methyl}phenyl)carbonyl]-6,7-dihydro-5H-pyrrolo[3,4-d]pyrimidin-2-yl}carbamate], the negative-log IC50 (pIC50) is 8.42.
In the case of `N=C1NC(c2ccccc2)(c2ccccc2)C(=O)N1Cc1cc(F)cc(C(=O)N2Cc3ccccc3C2)c1` [Compound 296, 3-[3-(1,3-dihydro-2H-isoindol-2-ylcarbonyl)-5-fluorobenzyl]-2-imino-5,5-diphenylimidazolidin-4-one], the pIC50 is 7.39.
The value for `N=C1N[C@](CCCC(F)(F)F)(c2ccc(F)cc2)C(=O)N1Cc1ccc(C(F)(F)F)c(C(=O)N2CCN3C(=O)OCC3C2)c1` (stereo partly drawn) [Compound 87, 7-{[5-{[(4R)-4-(4-fluorophenyl)-2-imino-5-oxo-4-(4,4,4-trifluoro-butyl)imidazolidin-1-yl]methyl}-2-(trifluoromethyl)phenyl]carbonyl}hexahydro[1,3] oxazolo[3,4-a]pyrazin-3-one] was 7.83; that for `CC(C)CC1(c2ccccc2)NC(=N)N(Cc2cccc(C(=O)N3CCN(C(=O)c4ccco4)CC3)c2)C1=O` (centres unmarked) [Compound 268, 3-(3-{[4-(furan-2-ylcarbonyl)piperazin-1-yl]carbonyl}benzyl)-2-imino-5-(2-methylpropyl)-5-phenylimidazolidin-4-one] was 7.57; that for `CC(C)CC[C@]1(c2ccc(F)cc2)NC(=N)N(C(COC(C)C)c2ccc(C(F)(F)F)c(C(=O)N3Cc4nccnc4C3)c2)C1=O` (stereo partly drawn) [Compound 8, (5R)-3-{1-[3-(5,7-dihydro-6H-pyrrolo[3,4-b]pyrazin-6-ylcarbonyl)-4-(trifluoromethyl)phenyl]-2-(1-methylethoxy)ethyl}-5-(4-fluorophenyl)-2-imino-5-(3-methylbutyl)imidazolidin-4-one] was 9.28.
The value for `N=C1NC(c2ccccc2)(c2ccccc2)C(=O)N1Cc1cccc(C(=O)N2Cc3cccc(F)c3C2)c1` [Compound 194, 3-{3-[(4-fluoro-1,3-dihydro-2H-isoindol-2-yl)carbonyl]benzyl}-2-imino-5,5-diphenylimidazolidin-4-one] was 7.45.
Turning to `CC(C)CCC1(c2cccc(-c3cccnc3)c2)NC(=N)N(Cc2cccc(C(=O)N3Cc4cccnc4C3)c2)C1=O` (centres unmarked) [Compound 360, 3-[3-(5,7-dihydro-6H-pyrrolo[3,4-b]pyridin-6-ylcarbonyl)benzyl]-2-imino-5-(3-methylbutyl)-5-(3-pyridin-3-ylphenyl)imidazolidin-4-one], the pIC50 is 7.02.
On to `N=C1N[C@](CCCC(F)(F)F)(c2ccc(F)cc2)C(=O)N1Cc1ccc(C(F)(F)F)c(C(=O)N2Cc3cnc(-c4ccncc4)nc3C2)c1` [Compound 53, (5R)-5-(4-fluorophenyl)-2-imino-3-{3-[(2-pyridin-4-yl-5,7-dihydro-6H-pyrrolo[3,4-d]pyrimidin-6-yl)carbonyl]-4-(trifluoromethyl)-benzyl}-5-(4,4,4-trifluorobutyl)-imidazolidin-4-one], for which the pIC50 is 8.25.
In the case of `Cn1ncc2cc(-c3ncc4c(n3)CN(C(=O)c3cc(CN5C(=N)N[C@](CCCC(F)(F)F)(c6ccc(F)cc6)C5=O)ccc3C(F)(F)F)C4)ccc21` [Compound 43, (5R)-5-(4-fluorophenyl)-2-imino-3-[3-{[2-(1-methyl-1H-indazol-5-yl)-5,7-dihydro-6H-pyrrolo[3,4-d]pyrimidin-6-yl]carbonyl}-4-(trifluoromethyl)benzyl]-5-(4,4,4-trifluorobutyl)imidazolidin-4-one], the pIC50 was 8.35.
Regarding `N=C1NC(c2ccc(F)cc2)(c2ccc(F)cc2)C(=O)N1Cc1cccc(C(=O)N2Cc3cccc(F)c3C2)c1` [Compound 196, 3-{3-[(4-fluoro-1,3-dihydro-2H-isoindol-2-yl)carbonyl]benzyl}-5,5-bis (4-fluorophenyl)-2-iminoimidazolidin-4-one], the pIC50 was 7.50.
On to `CCc1nnc2n1CCN(C(=O)c1cccc(CN3C(=N)NC(c4ccccc4)(c4ccccc4)C3=O)c1)C2` [Compound 356, 3-{3-[(3-ethyl-5,6-dihydro[1,2,4]triazolo[4,3-a]pyrazin-7(8H)-yl)carbonyl]benzyl}-2-imino-5,5-diphenylimidazolidin-4-one], for which the pIC50 is 7.04.
The value for `CS(=O)(=O)CCn1cc(-c2ncc3c(n2)CN(C(=O)c2cc(CN4C(=N)N[C@](CCCC(F)(F)F)(c5ccc(F)cc5)C4=O)ccc2C(F)(F)F)C3)cn1` [Compound 17, (5R)-5-(4-fluorophenyl)-2-imino-3-{3-[(2-{1-[2-(methylsulfonyl)ethyl]-1H-pyrazol-4-yl}-5,7-dihydro-6H-pyrrolo[3,4-d]pyrimidin-6-yl)carbonyl]-4-(trifluoromethyl)-benzyl}-5-(4,4,4-trifluorobutyl)-imidazolidin-4-one] was 8.70.
As for `CCOC(=O)c1nc2n(c1Cl)CCN(C(=O)c1cccc(CN3C(=N)NC(c4ccccc4)(c4ccccc4)C3=O)c1)C2` [Compound 247, ethyl 3-chloro-7-({3-[(2-imino-5-oxo-4,4-diphenylimidazolidin-1-yl)methyl]phenyl}carbonyl)-5,6,7,8-tetrahydroimidazo[1,2-a]pyrazine-2-carboxylate], the pIC50 is 7.75.
On to `CC(c1cccc(C(=O)N2Cc3cncnc3C2)c1)N1C(=N)NC(c2ccccc2)(c2ccccc2)C1=O` (centres unmarked) [Compound 266, 3-{1-[3-(5,7-dihydro-6H-pyrrolo[3,4-b]pyrazin-6-ylcarbonyl)phenyl]ethyl}-2-imino-5.5-diphenylimidazolidin-4-one], for which the pIC50 is 7.58.
For `CC(C)OCC(c1ccc(C(F)(F)F)c(C(=O)N2Cc3nccnc3C2)c1)N1C(=N)N[C@](CCC2CC2)(c2ccc(F)cc2)C1=O` (stereo partly drawn) [Compound 38, (5R)-5-(2-cyclopropylethyl)-3-{1-[3-(5,7-dihydro-6H-pyrrolo[3,4-b]pyrazin-6-ylcarbonyl)-4-(trifluoromethyl)phenyl]-2-(1-methylethoxy)ethyl}-5-(4-fluorophenyl)-2-iminoimidazolidin-4-one], the pIC50 is 8.39.
As for `N#Cc1cccc(-c2ncc3c(n2)CN(C(=O)c2cc(CN4C(=N)N[C@](CCCC(F)(F)F)(c5ccc(F)cc5)C4=O)ccc2C(F)(F)F)C3)c1` [Compound 79, 3-(6-{[5-{[(4R)-4-(4-fluorophenyl)-2-imino-5-oxo-4-(4,4,4-trifluoro-butyl)imidazolidin-1-yl]methyl}-2-(trifluoromethyl)-phenyl]carbonyl}-6,7-dihydro-5H-pyrrolo[3,4-d]pyrimidin-2-yl)benzonitrile], the pIC50 is 7.97.
With `CC(C)CC[C@]1(c2ccc(F)cc2)NC(=N)N(C(Cc2ccccc2)c2ccc(C(F)(F)F)c(C(=O)N3Cc4nccnc4C3)c2)C1=O` (stereo partly drawn) [Compound 4, (5R)-3-{1-[3-(5,7-dihydro-6H-pyrrolo[3,4-b]pyrazin-6-ylcarbonyl)-4-(trifluoromethyl)-phenyl]-2-phenylethyl}-5-(4-fluorophenyl)-2-imino-5-(3-methylbutyl)-imidazolidin-4-one], the pIC50 was 9.70.
